Test results as given in patent US20220220095A1, “N-((HETEROARYL)METHYL)-1-TOSYL-1H-PYRAZOLE-3-CARBOXAMIDE DERIVATIVES AS Kv3 POTASSIUM CHANNEL ACTIVATORS FOR TREATING NEUROLOGICAL AND [sequence] DISORDERS” (H. Lundbeck A/S, priority 2019, published 2022).

Biological target: T1, hKv3.1b (Homo sapiens, UniProt P48547)
T1 construct: expressed in transfected cells
T1 sequence (P48547 1-585 isoform P48547-2): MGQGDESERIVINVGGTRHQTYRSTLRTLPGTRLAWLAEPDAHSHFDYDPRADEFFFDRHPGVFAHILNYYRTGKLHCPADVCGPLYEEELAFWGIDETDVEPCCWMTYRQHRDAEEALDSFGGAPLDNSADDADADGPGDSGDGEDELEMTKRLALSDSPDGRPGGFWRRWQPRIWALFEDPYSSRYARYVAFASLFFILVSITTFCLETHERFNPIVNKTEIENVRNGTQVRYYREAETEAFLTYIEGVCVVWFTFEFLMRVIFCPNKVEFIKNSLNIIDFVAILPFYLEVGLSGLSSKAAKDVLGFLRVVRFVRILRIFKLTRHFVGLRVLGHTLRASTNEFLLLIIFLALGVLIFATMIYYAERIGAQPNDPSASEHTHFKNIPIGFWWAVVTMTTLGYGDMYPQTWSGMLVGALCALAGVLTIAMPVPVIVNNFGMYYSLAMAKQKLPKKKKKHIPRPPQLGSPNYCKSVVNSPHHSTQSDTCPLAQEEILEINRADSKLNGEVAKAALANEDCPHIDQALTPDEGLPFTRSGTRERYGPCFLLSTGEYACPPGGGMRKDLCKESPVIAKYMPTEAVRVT
Test: Automated whole-cell patch-clamp (QPatch-16x) on HEK-293 cells stably expressing hKv3.1b: shift of voltage threshold for channel activation
Format: cell-based
Settings: HEK-293 hKv3.1b; for ECdelta5mV: concentration needed to shift the threshold 5 mV, read out from fitted concentration response curve; for Max Delta threshold: maximum absolute shift of activation threshold to more hyperpolarized potentials at the tested concentrations (0.37, 1.11, 3.33, 10, 30 μM)
Description: HEK-293 cells stably expressing hKv3.1b was used for the experiments. Cells were cultured in DMEM medium supplemented with 10% Fetal Bovine Serum, 100 ug/mL Geneticidin and 100 u/mL Penicillin/Streptomycin (all from Gibco). Cells were grown to 80-90% confluency at 37° C. and 5% CO2. On the day of the experiment the cells were detached from the tissue culture flasks by Detachin and resuspended in serum free medium containing 25 mM HEPES and transferred to the cell hotel of the QPatch. The cells were used for experiments 0-5 hours after detachment.
Patch-clamp recordings were performed using the automated recording system QPatch-16x (Sophion Bioscience, Denmark). Cells were centrifuged, SFM removed and the cells were resuspended in extracellular buffer containing (in mM): 145 NaCl, 4 KCl, 1 MgCl2, 2 CaCl2, 10 HEPES and 10 glucose (added fresh on the day of experiment); pH 7.4 adjusted with NaOH, 305 mOsm adjusted with sucrose.
Single cell whole-cell recordings were carried out using an intracellular solution containing (in mM): 120 KCl, 32.25/10 KOH/EGTA, 5.374 CaCl2, 1.75 MgCl2, 10 HEPES, 4 Na2ATP (added fresh on the day), pH 7.2 adjusted with KOH, […] adjusted with sucrose. Cell membrane potentials were held at −80 mV and currents were evoked by voltage steps (200 ms duration) from −70 mV to +10 mV (in 10 mV increments).
Leak subtraction protocol was applied at −33% of the sweep amplitude, and serial resistance values were constantly monitored.
Any cell where serial resistance exceeded 25 MOhm, membrane resistance less than 200 MOhm or current size at −10 mV less than 200 pA was eliminated from the subsequent analysis.
Data analysis was performed using Sophion's QPatch assay software in combination with Microsoft Excel™ (Redmond, Wash., USA).
Current voltage relationships were plotted from the peak current at the individual voltage steps normalized to the vehicle addition at 10 mV. The voltage threshold for channel activation was defined as 5% activation of the peak current at 10 mV in presence of vehicle. The activity of the compounds was described as the ability to shift this current voltage relationship to more hyperpolarized potentials and is given as the maximum absolute shift possible at the tested concentrations (0.37, 1.11, 3.33, 10, 30 μM). Concentration response curves were plotted from the threshold shift at the individual concentrations and were fitted excel fit model 205 sigmodal dose-response model (fit=A+((B−A)/1+((C/x)^D)))), where A is the minimum value, B the maximum value, C the EC50 value and D the slope of the curve. The concentration needed to shift the threshold 5 mV was readout from this curve (ECdelta 5 mV).

ECdelta5mV | Max Delta threshold | SMILES
1800 nM | 23 mV | COc1ccc(S(=O)(=O)n2ccc(C(=O)NCc3cnc(C)cn3)n2)cc1C [Compound 1, 1-(4-methoxy-3-methylbenzene-1-sulfonyl)-N-[(5-methylpyrazin-2-yl)methyl]-1H-pyrazole-3-carboxamide]
1600 nM | 25 mV | COc1ccc(S(=O)(=O)n2ccc(C(=O)NCc3cnccn3)n2)c(C)c1 [Compound 3, 1-(4-methoxy-2-methylbenzene-1-sulfonyl)-N-[(pyrazin-2-yl)methyl]-1H-pyrazole-3-carboxamide]
2100 nM | 21 mV | COc1ccc(S(=O)(=O)n2ccc(C(=O)NCc3cnccn3)n2)cc1C [Compound 4, 1-(4-methoxy-3-methylbenzene-1-sulfonyl)-N-[(pyrazin-2-yl)methyl]-1H-pyrazole-3-carboxamide]
1800 nM | 26 mV | COc1ccc(S(=O)(=O)n2ccc(C(=O)NCc3cnc(C)cn3)n2)cc1 [Compound 5, 1-(4-methoxybenzene-1-sulfonyl)-N-[(5-methylpyrazin-2-yl)methyl]-1H-pyrazole-3-carboxamide]
1300 nM | 22 mV | COc1ccc(S(=O)(=O)n2ccc(C(=O)NCc3nc(C)cs3)n2)cc1 [Compound 6, 1-(4-methoxybenzene-1-sulfonyl)-N-[(4-methyl-1,3-thiazol-2-yl)methyl]-1H-pyrazole-3-carboxamide]
2900 nM | 18 mV | COc1ccc(S(=O)(=O)n2ccc(C(=O)NCc3cncnc3)n2)cc1 [Compound 7, 1-(4-methoxybenzene-1-sulfonyl)-N-[(pyrimidin-5-yl)methyl]-1H-pyrazole-3-carboxamide]
3800 nM | 16 mV | COc1ccc(S(=O)(=O)n2ccc(C(=O)NCc3ccon3)n2)cc1 [Compound 8, 1-(4-methoxybenzene-1-sulfonyl)-N-[(1,2-oxazol-3-yl)methyl]-1H-pyrazole-3-carboxamide]
3900 nM | 13 mV | COc1ccc(S(=O)(=O)n2ccc(C(=O)NCc3cnoc3)n2)cc1 [Compound 9, 1-(4-methoxybenzene-1-sulfonyl)-N-[(1,2-oxazol-4-yl)methyl]-1H-pyrazole-3-carboxamide]
3400 nM | 17 mV | COc1ccc(S(=O)(=O)n2ccc(C(=O)NCc3ccno3)n2)cc1 [Compound 10, 1-(4-methoxybenzene-1-sulfonyl)-N-[(1,2-oxazol-5-yl)methyl]-1H-pyrazole-3-carboxamide]
2400 nM | 29 mV | COc1ccc(S(=O)(=O)n2ccc(C(=O)NCc3cnc(C)nc3)n2)cc1 [Compound 11, 1-(4-methoxybenzene-1-sulfonyl)-N-[(2-methylpyrimidin-5-yl)methyl]-1H-pyrazole-3-carboxamide]
3800 nM | 16 mV | COc1ccc(S(=O)(=O)n2ccc(C(=O)NCc3cocn3)n2)cc1 [Compound 12, 1-(4-methoxybenzene-1-sulfonyl)-N-[(1,3-oxazol-4-yl)methyl]-1H-pyrazole-3-carboxamide]
4000 nM | 16 mV | COc1ccc(S(=O)(=O)n2ccc(C(=O)NCc3ncn(C)n3)n2)cc1 [Compound 13, 1-(4-methoxybenzene-1-sulfonyl)-N-[(1-methyl-1H-1,2,4-triazol-3-yl)methyl]-1H-pyrazole-3-carboxamide]
4500 nM | 14 mV | Cc1cc(CNC(=O)c2ccn(S(=O)(=O)c3ccccc3)n2)on1 [Compound 14, 1-(benzenesulfonyl)-N-[(3-methyl-1,2-oxazol-5-yl)methyl]-1H-pyrazole-3-carboxamide]
